# Reference: patent US9657014B2, “Substituted 1,6-naphthyridines” (Hoffmann-La Roche Inc., priority 2012, dated 2017)
# Tested on: human embryonic stem cell derived neural stem cells (NSCs)
# Experiment: Neural stem cell proliferation assay (neurogenesis assay)
# Assay type: cell-based
# Conditions: Homo sapiens, Neural stem cell, 96 h; Table 1, novel compounds; concentration at which 150% activity of control (100%) is reached; ATP levels (CellTiterGlo) after 4 days incubation
# How it was run: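 NSCs derived from human ES cells by dual SMAD inhibition, seeded on polyornithin/laminin, dosed 4 h later (11 points, 8 μM to 8 nM). After 4 days at 37° C, ATP luminescence read; response = compound/medium control ×100, EC150 = concentration giving 150% of control.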
row,SMILES,EC (150% of control) [µM]
1,"CC(C)(C)CNC(=O)c1ccc2cncc(-c3ccc(F)cc3F)c2n1 [Example 120, 8-(2,4-Difluorophenyl)-N-neopentyl-1,6-naphthyridine-2-carboxamide]",0.08
2,"O=C(NCc1ccncc1)c1ccc2cncc(-c3cccnc3)c2n1 [Example 31, 8-(Pyridin-3-yl)-N-(pyridin-4-ylmethyl)-1,6-naphthyridine-2-carboxamide]",0.54
3,"CC(C)(C)CNC(=O)c1ccc2cncc(-c3ccc(Cl)cc3)c2n1 [Example 68, 8-(4-Chlorophenyl)-N-neopentyl-1,6-naphthyridine-2-carboxamide]",0.07
4,"COc1ccc(-c2cncc3ccc(C(=O)NCc4cccnc4)nc23)cc1 [Example 22, 8-(4-Methoxyphenyl)-N-(pyridin-3-ylmethyl)-1,6-naphthyridine-2-carboxamide]",0.03
5,"COCCNC(=O)c1ccc2cncc(-c3ccncc3)c2n1 [Example 18, N-(2-Methoxyethyl)-8-(pyridin-4-yl)-1,6-naphthyridine-2-carboxamide]",0.31
6,"O=C(NCc1ccncc1)c1ccc2cncc(-c3ccc(Cl)cc3)c2n1 [Example 28, 8-(4-Chlorophenyl)-N-(pyridin-4-ylmethyl)-1,6-naphthyridine-2-carboxamide]",0.1
7,"Cc1ccccc1-c1cncc2ccc(C(=O)NC(C)C(C)(C)O)nc12 (stereo not drawn) [Example 176, N-(3-Hydroxy-3-methylbutan-2-yl)-8-o-tolyl-1,6-naphthyridine-2-carboxamide]",0.28
8,"CC(C)(C)CNC(=O)c1ccc2cncc(-c3cccc(F)c3)c2n1 [Example 119, 8-(3-Fluorophenyl)-N-neopentyl-1,6-naphthyridine-2-carboxamide]",0.27
9,"CC(NC(=O)c1ccc2cncc(-c3ccc(Cl)nc3)c2n1)C(C)(C)O (stereo not drawn) [Example 174, 8-(6-Chloropyridin-3-yl)-N-(3-hydroxy-3-methylbutan-2-yl)-1,6-naphthyridine-2-carboxamide]",0.61
10,"NC(=O)c1ccc2cncc(-c3ccc(N4CCOCC4)cc3)c2n1 [Example 94, 8-(4-Morpholinophenyl)-1,6-naphthyridine-2-carboxamide]",0.01
11,"CCCCCCNC(=O)c1ccc2cncc(-c3ccc(Cl)cc3)c2n1 [Example 145, 8-(4-Chlorophenyl)-N-hexyl-1,6-naphthyridine-2-carboxamide]",0.21
12,"COc1ccc(-c2cncc3ccc(C(=O)NCCCc4ccccc4)nc23)cc1 [Example 25, 8-(4-Methoxyphenyl)-N-(3-phenylpropyl)-1,6-naphthyridine-2-carboxamide]",0.67
13,"COCCNC(=O)c1ccc2cncc(-c3cccc(Cl)c3)c2n1 [Example 7, 8-(3-Chlorophenyl)-N-(2-methoxyethyl)-1,6-naphthyridine-2-carboxamide]",0.32
14,"CS(=O)(=O)c1ccc(CNC(=O)c2ccc3cncc(-c4ccc(Cl)cc4)c3n2)cc1 [Example 50, 8-(4-Chlorophenyl)-N-(4-(methylsulfonyl)benzyl)-1,6-naphthyridine-2-carboxamide]",0.32
15,"O=C(c1ccc2cncc(-c3ccc(Cl)c(F)c3)c2n1)N1CCC(O)C1 (stereo not drawn) [Example 131, (8-(4-Chloro-3-fluorophenyl)-1,6-naphthyridin-2-yl)(3-hydroxypyrrolidin-1-yl)methanone]",0.07
16,"CC(NC(=O)c1ccc2cncc(-c3ccc(Cl)cc3)c2n1)c1cccc(S(C)(=O)=O)c1 (single isomer, unassigned; (-)) [Example 52, (−)-8-(4-Chloro-phenyl)-[1,6]naphthyridine-2-carboxylic acid [(S or R)-1-(3-methanesulfonyl-phenyl)-ethyl]-amide]",0.8

row,SMILES,EC (150% of control) [µM]
1,"COc1ccc(-c2cncc3ccc(C(=O)NCc4ccccn4)nc23)cc1 [Example 23, 8-(4-Methoxyphenyl)-N-(pyridin-2-ylmethyl)-1,6-naphthyridine-2-carboxamide]",0.03
2,"NC(=O)c1ccc2cncc(-c3ccccc3Cl)c2n1 [Example 168, 8-(2-Chlorophenyl)-1,6-naphthyridine-2-carboxamide]",0.15
3,"CS(=O)(=O)c1ccccc1-c1cncc2ccc(C(N)=O)nc12 [Example 88, 8-(2-(Methylsulfonyl)phenyl)-1,6-naphthyridine-2-carboxamide]",0.5
4,"CS(=O)(=O)c1ccc(CNC(=O)c2ccc3cncc(-c4ccccc4F)c3n2)cc1 [Example 112, 8-(2-Fluorophenyl)-N-(4-(methylsulfonyl)benzyl)-1,6-naphthyridine-2-carboxamide]",0.25
5,"NC(=O)c1ccc2cncc(-c3ccc(Cl)cc3Cl)c2n1 [Example 160, 8-(2,4-Dichlorophenyl)-1,6-naphthyridine-2-carboxamide]",0.1
6,"O=C(NCc1ccncn1)c1ccc2cncc(-c3ccc(Cl)cc3)c2n1 [Example 96, 8-(4-Chlorophenyl)-N-(pyrimidin-4-ylmethyl)-1,6-naphthyridine-2-carboxamide]",0.17
7,"O=C(NCC(F)(F)F)c1ccc2cncc(-c3ccc(Cl)cc3)c2n1 [Example 63, 8-(4-Chlorophenyl)-N-(2,2,2-trifluoroethyl)-1,6-naphthyridine-2-carboxamide]",0.23
8,"O=C(NCC(F)(F)F)c1ccc2cncc(-c3ccc(F)cc3)c2n1 [Example 124, 8-(4-Fluorophenyl)-N-(2,2,2-trifluoroethyl)-1,6-naphthyridine-2-carboxamide]",0.07
9,"COCCNC(=O)c1ccc2cncc(-c3ccccc3Cl)c2n1 [Example 8, 8-(2-Chlorophenyl)-N-(2-methoxyethyl)-1,6-naphthyridine-2-carboxamide]",0.33
10,"CC(NC(=O)c1ccc2cncc(-c3ccc(F)c(F)c3)c2n1)c1ccc(S(C)(=O)=O)cc1 (stereo not drawn) [Example 111, 8-(3,4-Difluorophenyl)-N-(1-(4-(methylsulfonyl)phenyl)ethyl)-1,6-naphthyridine-2-carboxamide]",0.3
11,"CS(=O)(=O)c1ccc(-c2cncc3ccc(C(N)=O)nc23)cc1 [Example 86, 8-(4-(Methylsulfonyl)phenyl)-1,6-naphthyridine-2-carboxamide]",0.03
12,"CS(=O)(=O)c1ccccc1CNC(=O)c1ccc2cncc(-c3ccc(Cl)cc3)c2n1 [Example 132, 8-(4-Chlorophenyl)-N-(2-(methylsulfonyl)benzyl)-1,6-naphthyridine-2-carboxamide]",0.03
13,"CS(=O)(=O)CCNC(=O)c1ccc2cncc(-c3ccc(F)cc3F)c2n1 [Example 129, 8-(2,4-Difluorophenyl)-N-(2-(methylsulfonyl)ethyl)-1,6-naphthyridine-2-carboxamide]",0.06
14,"COc1ccc(-c2cncc3ccc(C(=O)NCCC(F)(F)F)nc23)cc1 [Example 35, 8-(4-Methoxyphenyl)-N-(3,3,3-trifluoropropyl)-1,6-naphthyridine-2-carboxamide]",1.74
15,"CC(C)(C)CNC(=O)c1ccc2cncc(-c3ccc(F)cc3)c2n1 [Example 117, 8-(4-Fluorophenyl)-N-neopentyl-1,6-naphthyridine-2-carboxamide]",0.07

# Same assay, conditions: Homo sapiens, Neural stem cell, 96 h; Table 2, known compounds; concentration at which 150% activity of control (100%) is reached; ATP levels (CellTiterGlo) after 4 days incubation
row,SMILES,EC (150% of control) [µM]
1,"O=C(NCc1ccncc1)c1ccc2cncc(-c3ccsc3)c2n1 [Example 198, 8-Thiophen-3-yl-[1,6]naphthyridine-2-carboxylic acid (pyridin-4-ylmethyl)-amide]",0.12
2,"COc1ccc(-c2cncc3ccc(C(=O)NCc4ccccc4)nc23)cc1 [Example 184, 8-(4-Methoxy-phenyl)-[1,6]naphthyridine-2-carboxylic acid benzylamide]",0.16
3,"O=C(NC1CCN(Cc2ccccc2)CC1)c1ccc2cncc(-c3ccccc3)c2n1 [Example 193, 8-Phenyl-[1,6]naphthyridine-2-carboxylic acid (1-benzyl-piperidin-4-yl)-amide]",1.9
4,"O=C(c1ccc2cncc(-c3ccsc3)c2n1)N1CCN(c2ccccn2)CC1 [Example 200, (4-Pyridin-2-yl-piperazin-1-yl)-(8-thiophen-3-yl-[1,6]naphthyridin-2-yl)-methanone]",0.8
5,"O=C(NCc1ccc(C(F)(F)F)nc1)c1ccc2cncc(-c3ccccc3)c2n1 [Example 196, 8-Phenyl-[1,6]naphthyridine-2-carboxylic acid (6-trifluoromethyl-pyridin-3-ylmethyl)-amide]",3.7
6,"O=C(NCc1ccc(C(F)(F)F)nc1)c1ccc2cncc(-c3ccsc3)c2n1 [Example 203, 8-Thiophen-3-yl-[1,6]naphthyridine-2-carboxylic acid (6-trifluoromethyl-pyridin-3-ylmethyl)-amide]",1.5
7,"COc1ccccc1CNC(=O)c1ccc2cncc(-c3ccsc3)c2n1 [Example 202, 8-Thiophen-3-yl-[1,6]naphthyridine-2-carboxylic acid 2-methoxy-benzylamide]",0.15
8,"CS(=O)(=O)c1ccc(CNC(=O)c2ccc3cncc(-c4ccccc4)c3n2)cc1 [Example 195, 8-Phenyl-[1,6]naphthyridine-2-carboxylic acid 4-methanesulfonyl-benzylamide]",4
9,"COc1ccc(-c2cncc3ccc(C(=O)N4CCOCC4)nc23)cc1 [Example 182, [8-(4-Methoxy-phenyl)-[1,6]naphthyridin-2-yl]-morpholin-4-yl-methanone]",5.4
10,"O=C(NCCCN1CCOCC1)c1ccc2cncc(-c3ccccc3)c2n1 [Example 188, 8-Phenyl-[1,6]naphthyridine-2-carboxylic acid (3-morpholin-4-yl-propyl)-amide]",6.8
11,"COc1ccc(-c2cncc3ccc(C(=O)NCc4ccncc4)nc23)cc1 [Example 181, 8-(4-Methoxy-phenyl)-[1,6]naphthyridine-2-carboxylic acid (pyridin-4-ylmethyl)-amide]",0.04
